Key:
[1] = biological target: T1, GCN2 (Mus musculus, UniProt Q9QZ05); assay: GCN2 inhibition cell-based assay (P-GCN2 Western blot in Neuro 2a cells); settings: amino acid deprived media (DMEM lacking L-cysteine and methionine), 3 hours
T1 construct: endogenous in cells; host or cells: Neuro 2a (N2a)
Protocol: Neuro 2a cells (N2a) were maintained at 37° C. and 5% CO2 in DMEM/F12 medium (Fisher Scientific) supplemented with 10% fetal bovine serum and 1% penicillin-streptomycin (complete medium). 300,000 cells/well were seeded in flat bottom 6 well plates 48 hours before treatment with the compounds.
Testing compounds were prepared at different concentrations ranging from 10 μM to 0.1 nM on DMEM medium lacking L-cysteine and methionine (DMEM-CM) (Gibco) and supplemented with 1% penicillin-streptomycin. Complete medium was used as control of non-stressed condition. After 48 hours, the medium was removed from each well and 2 mL per well of each treatment was added. Cells were treated for 3 hours at 37° C. and 5% CO2.
After the incubation time, each well was washed with sterile 1×PBS and then 100 μL of ice-cold lysis buffer supplemented with phosphatase and protease inhibitors was added. Lysates were transferred to 1.5 mL tubes and sonicated for 3 min, and total protein amounts were quantified using BCA assay (e.g., BCA Protein Assay Kit; Pierce) according to manufacturer instructions. Equal amount of proteins was loaded on SDS-PAGE gels for electrophoresis and then transferred onto 0.2 µm filter pore PVDF membranes.
Membranes were then blocked in blocking buffer containing 3% BSA/0.1% Tween/1×Tris-buffered saline (TBS) for 1 hour and then incubated overnight at 4° C. with agitation with anti-pGCN2 primary antibody (Abcam ab-75836), diluted 1:1,000 in blocking buffer. […] (Sigma Aldrich) was used as a loading control.
Membranes were then incubated with the corresponding secondary antibody to detect immune-reactive bands using enhanced chemiluminescence (e.g., ECL Western Blotting Substrate Pierce).
Images were acquired (e.g., using Chemidoc™ equipment) and quantitated by densitometry using ImageJ software. IC50 values were determined from a concentration-response curve using GraphPad prism software.
IC50 values from P-GCN2 inhibition assay after induction with amino acid deprived media in the presence of different concentrations of test compounds are shown in Table 2. For IC50 values: +++ refers to <10 nM of test compound; ++ refers to 10 nM to 100 nM of test compound; + refers to 100 nM to 1,000 nM of test compound and − refers to >1,000 nM of test compound.
Under GCN2-mediated stress conditions, resulting from an amino acid deprived medium, GCN2 is generally phosphorylated. Accordingly, inhibition of GCN2 phosphorylation as a result of the test compound indicates inhibition of the GCN2 pathway.

[2] = tested on: HT29 cells; assay: Growth of tumor spheroids; type: cell-based; settings: 64 μM arginine, up to 120 hours, vs untreated spheroids
Protocol: The growth of tumor spheroids was evaluated following treatment of cells with Compound 1, Compound 2 and Compound 108. Briefly, HT29 cells were seeded at 5,000 cells/well in ultra-low attachment round bottom 96-well plates, in 100 μL SILAC DMEM Flex media without phenol red, supplemented with 10% fetal bovine serum (FBS), 1 g/L glucose, 2 mM glutamine, 220 μM lysine, and 64 μM arginine. The plates were centrifuged for 10 minutes at 125×g and put in a humidified incubator at 37° C. for 3 days before the onset of the experiment to allow spheroids to form.
Three days after seeding, 10 μM Compound 1, 10 μM Compound 2, 10 μM Compound 108 or 10 μM vehicle control (0.1% DMSO), were added together with 100 nM fluorescent apoptosis stain (e.g., YO-PRO™-1 Iodide; Thermo Fisher) to detect apoptotic cells and Nuclear-ID Red DNA Stain (1:100,000; ENZO Life Sciences) to detect live cells. Plates were placed in a live-cell imaging and analysis platform (e.g., IncuCyte ZOOM®; Essenbio) set up in a humidified incubator at 37° C. and scanned every 4 hours for up 120 hours, at 10× magnification, to determine relative spheroid size and cell death. Experiments were performed in quadruplicate and analyzed using live-cell imaging and analysis software (e.g., IncuCyte ZOOM® 2018A software; Essenbio).

[3] = tested on: CHOP (DDIT3) reporter; assay: GCN2-induction of CHOP and apoptosis in 3T3 fibroblasts with CHOP (DDIT3) reporter construct; type: cell-based, murine; settings: for GCN2 activation / GCN2-induced CHOP activation: murine 3T3 CHOP (mCherry) reporter fibroblasts, increasing concentrations, in the presence of halofuginone or histidinol; for apoptosis induced by halofuginone / late-stage apoptosis induced by histidinol: murine 3T3 WT cells; for apoptosis induced by halofuginone: co-treatment with halofuginone; for late-stage apoptosis induced by histidinol: co-treatment with histidinol
Protocol: The CHOP construct comprised the […] (UTR) of mouse DDIT3 mRNA fused to a sequence encoding the fluorescent protein mCherry.
Cells were seeded at 5,000 cells per well in flat bottom 96-well plates in 100 μL DMEM low glucose media without phenol red, and supplemented with 10% FBS and 2 mM glutamine. After 24 hours, the exemplary compounds, and either tunicamycin, halofuginone, or histidinol, were added together with 100 nM of fluorescent apoptosis stain (YO-PRO™-1 Iodide; Thermo Fisher) to detect apoptotic cells. Cells were placed in a live-cell imaging and analysis platform (IncuCyte ZOOM®; Essenbio) set up in a humidified incubator at 37° C. and the plates were scanned every 4 hours for up 120 hours, at 10× magnification, to determine cell confluence and cell death. Experiments were performed in duplicate with 3 images collected per well, and analyzed using live-cell imaging and analysis software (IncuCyte ZOOM® 2018A software; Essenbio).

[4] = biological target: GCN2 (Homo sapiens, UniProt Q9P2K8); assay: GCN2 enzyme inhibition assay (Reaction Biology EIF2AK4/GCN2 kinase assay); type: biochemical; design: purchased Reaction Biology Corp; settings: human GCN2 enzyme activity, 10 μM ATP, 20 μM peptide substrate
Protocol: In order to validate the above results, human GCN2 enzyme activity was measured in Reaction Biology Corp (EIF2AK4/GCN2 kinase assay). Compounds were tested in 5-dose IC50 mode for non-active compounds and 10-dose IC50 mode for active compounds with 3-fold serial dilution starting at 30 μM and 0.1 μM respectively. Control compound Staurosporine was tested in 10-dose IC50 mode with 4-fold serial dilution starting at 20 μM. Reactions were carried out at 10 μM ATP using 20 μM peptide substrate [GRSRSRSRSR]. For IC50 values: +++ refers to <10 nM of test compound; ++ refers to 10 nM to 100 nM of test compound; + refers to 100 nM to 1,000 nM of test compound and − refers to >1,000 nM of test compound.

Chain of GCN2 (Homo sapiens, UniProt Q9P2K8) (Q9P2K8 whole entry): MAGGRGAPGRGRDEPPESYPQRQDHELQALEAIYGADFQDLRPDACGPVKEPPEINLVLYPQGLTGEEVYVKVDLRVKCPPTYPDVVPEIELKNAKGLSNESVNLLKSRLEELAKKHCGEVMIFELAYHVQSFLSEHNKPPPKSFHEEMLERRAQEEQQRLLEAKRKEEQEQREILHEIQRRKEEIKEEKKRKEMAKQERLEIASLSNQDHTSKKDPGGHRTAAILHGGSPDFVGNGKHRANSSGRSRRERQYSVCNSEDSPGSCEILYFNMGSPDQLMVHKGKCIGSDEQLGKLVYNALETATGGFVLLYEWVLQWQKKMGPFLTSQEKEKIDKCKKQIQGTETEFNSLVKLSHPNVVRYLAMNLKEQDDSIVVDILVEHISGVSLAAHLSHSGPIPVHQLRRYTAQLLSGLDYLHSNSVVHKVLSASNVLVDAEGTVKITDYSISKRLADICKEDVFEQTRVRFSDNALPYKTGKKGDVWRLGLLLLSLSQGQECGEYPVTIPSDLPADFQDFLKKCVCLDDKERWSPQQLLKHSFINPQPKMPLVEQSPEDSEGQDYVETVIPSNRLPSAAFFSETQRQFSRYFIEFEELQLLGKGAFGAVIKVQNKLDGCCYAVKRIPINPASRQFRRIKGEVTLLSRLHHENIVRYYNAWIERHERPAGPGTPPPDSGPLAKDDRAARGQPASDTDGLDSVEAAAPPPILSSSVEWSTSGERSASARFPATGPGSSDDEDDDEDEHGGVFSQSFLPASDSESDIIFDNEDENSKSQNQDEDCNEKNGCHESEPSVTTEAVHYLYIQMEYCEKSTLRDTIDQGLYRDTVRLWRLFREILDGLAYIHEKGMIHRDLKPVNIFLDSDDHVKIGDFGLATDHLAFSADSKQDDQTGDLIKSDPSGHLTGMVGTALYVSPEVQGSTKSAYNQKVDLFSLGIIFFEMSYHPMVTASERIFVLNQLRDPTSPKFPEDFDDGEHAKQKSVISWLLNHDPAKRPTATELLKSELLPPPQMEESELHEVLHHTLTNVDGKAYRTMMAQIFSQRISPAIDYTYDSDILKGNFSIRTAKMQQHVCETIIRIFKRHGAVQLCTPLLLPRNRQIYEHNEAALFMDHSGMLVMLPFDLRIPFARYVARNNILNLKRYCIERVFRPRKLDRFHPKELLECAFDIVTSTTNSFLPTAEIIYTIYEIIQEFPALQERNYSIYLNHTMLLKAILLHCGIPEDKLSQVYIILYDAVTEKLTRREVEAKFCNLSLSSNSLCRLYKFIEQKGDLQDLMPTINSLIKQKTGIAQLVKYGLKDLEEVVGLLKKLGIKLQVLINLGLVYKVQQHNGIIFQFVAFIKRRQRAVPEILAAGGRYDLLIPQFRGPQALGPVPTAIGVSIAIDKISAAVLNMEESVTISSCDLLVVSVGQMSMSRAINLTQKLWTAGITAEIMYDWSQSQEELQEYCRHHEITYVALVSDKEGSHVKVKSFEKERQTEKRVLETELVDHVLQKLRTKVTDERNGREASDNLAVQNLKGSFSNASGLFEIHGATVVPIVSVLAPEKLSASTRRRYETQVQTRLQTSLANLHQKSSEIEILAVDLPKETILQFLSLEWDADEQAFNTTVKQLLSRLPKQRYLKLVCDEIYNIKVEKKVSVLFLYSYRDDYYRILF
T1 sequence (Q9QZ05 whole entry): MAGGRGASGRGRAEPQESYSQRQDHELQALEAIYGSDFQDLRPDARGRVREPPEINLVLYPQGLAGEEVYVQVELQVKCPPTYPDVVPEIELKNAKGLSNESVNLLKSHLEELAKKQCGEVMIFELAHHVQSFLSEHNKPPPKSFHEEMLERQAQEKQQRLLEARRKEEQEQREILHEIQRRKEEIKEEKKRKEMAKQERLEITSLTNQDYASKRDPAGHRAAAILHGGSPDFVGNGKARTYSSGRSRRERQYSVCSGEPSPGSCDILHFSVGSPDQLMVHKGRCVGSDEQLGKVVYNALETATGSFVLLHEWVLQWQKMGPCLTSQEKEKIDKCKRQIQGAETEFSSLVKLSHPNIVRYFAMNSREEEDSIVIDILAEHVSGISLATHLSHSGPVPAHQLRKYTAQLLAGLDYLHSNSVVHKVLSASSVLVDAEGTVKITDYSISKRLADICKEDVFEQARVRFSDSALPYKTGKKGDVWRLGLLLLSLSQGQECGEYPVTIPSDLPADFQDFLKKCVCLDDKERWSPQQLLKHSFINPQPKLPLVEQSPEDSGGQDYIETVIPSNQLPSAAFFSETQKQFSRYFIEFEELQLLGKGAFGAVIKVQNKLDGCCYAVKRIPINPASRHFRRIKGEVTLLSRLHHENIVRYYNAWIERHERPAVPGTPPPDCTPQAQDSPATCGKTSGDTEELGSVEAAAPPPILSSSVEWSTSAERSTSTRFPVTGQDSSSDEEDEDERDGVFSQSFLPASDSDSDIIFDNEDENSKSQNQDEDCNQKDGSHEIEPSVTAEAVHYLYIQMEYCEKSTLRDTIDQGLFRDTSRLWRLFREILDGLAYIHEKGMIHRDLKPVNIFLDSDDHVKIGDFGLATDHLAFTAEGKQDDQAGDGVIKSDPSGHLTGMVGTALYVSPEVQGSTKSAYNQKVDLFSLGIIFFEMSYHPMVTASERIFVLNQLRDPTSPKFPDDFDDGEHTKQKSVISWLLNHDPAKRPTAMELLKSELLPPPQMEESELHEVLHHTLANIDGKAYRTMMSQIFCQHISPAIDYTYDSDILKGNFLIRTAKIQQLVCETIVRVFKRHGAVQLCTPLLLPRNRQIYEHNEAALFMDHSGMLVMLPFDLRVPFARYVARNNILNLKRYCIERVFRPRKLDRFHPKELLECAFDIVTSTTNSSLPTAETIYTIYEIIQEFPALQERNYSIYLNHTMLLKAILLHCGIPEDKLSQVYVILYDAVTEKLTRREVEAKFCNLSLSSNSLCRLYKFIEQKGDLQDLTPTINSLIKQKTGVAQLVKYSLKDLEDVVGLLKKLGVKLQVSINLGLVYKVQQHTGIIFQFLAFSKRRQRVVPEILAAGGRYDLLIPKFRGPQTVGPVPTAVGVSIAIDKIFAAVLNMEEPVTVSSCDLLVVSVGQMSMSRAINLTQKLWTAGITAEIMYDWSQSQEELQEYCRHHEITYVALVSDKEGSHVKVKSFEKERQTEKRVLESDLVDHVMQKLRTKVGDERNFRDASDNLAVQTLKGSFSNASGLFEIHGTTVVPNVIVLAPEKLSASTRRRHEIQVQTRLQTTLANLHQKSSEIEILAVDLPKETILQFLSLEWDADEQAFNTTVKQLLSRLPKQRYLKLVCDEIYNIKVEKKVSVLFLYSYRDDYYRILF

IC50 [1] | IC50 [4] | SMILES | spheroid size and viability [2] | GCN2 activation / GCN2-induced CHOP activation [3] | apoptosis induced by halofuginone [3] | late-stage apoptosis induced by histidinol [3]
< 10 nM | < 10 nM | Nc1ncc2cc(-c3c(F)ccc(NS(=O)(=O)c4cc(Cl)ccc4Cl)c3F)ccc2n1 [Compound 2] | relative reduction in spheroid size and viability in a dose-dependent manner | reduced GCN2 activation | effectively inhibited apoptosis | increased late-stage apoptosis
< 10 nM | 10 to 100 nM | COc1ncc(Cl)cc1S(=O)(=O)Nc1ccc(F)c(-c2ccc3nc(N)ncc3c2)c1F [Compound 1] | relative reduction in spheroid size and viability in a dose-dependent manner | reduced GCN2 activation | effectively inhibited apoptosis | increased late-stage apoptosis

Reference: patent publication US12630529B2, “GCN2 modulator compounds” (ALESTA THERAPEUTICS BV, priority 2020, dated 2026)
